Source: patent publication US4323581A, “Method of treating carcinogenesis” (priority 1978, dated 1982)

What was measured:
[1] = system: MNU-induced mammary cancer; experiment: Inhibition of mammary carcinogenesis induced by N-methyl-N-nitrosourea (MNU), rat breast cancer; type: in vivo, Female Sprague-Dawley rats; conditions: Table III
Excerpt: On the basis of the encouraging results summarized in the foregoing example, N-(4-hydroxyphenyl)-all-trans-retinamide was compared to retinyl acetate in the experimental assay for efficacy against rat breast cancer described in Nature Vol. 267, pp 620-621 (June 16, 1977), which measures the ability to inhibit mammary carcinogenesis induced by N-methyl-N-nitrosourea (MNU). The results of further extension of the tests, comparing the 4-hydroxyphenyl retinamide only to placebo, after 18 weeks with high dose MNU and 21 weeks with low dose MNU, are set forth in Table III. The results using these two different levels of MNU and two dietary levels of retinoid are shown graphically in FIGS. 1 and 2 after 18 weeks of testing.
Animals: Female Sprague-Dawley rats obtained from ARS Sprague-Dawley.
Crystalline MNU. Rats received 2 I.V. injections at 50 and 57
High dose is 50 mg/kg; low dose 15 mg/kg.
Retinoids were dissolved in solvent and blended into the diets.
placed on diets 3 days after last MNU injection.
50 gm trioctanoin:ethanol (3:1), 0.05 ml Tenox 20, 0.05 ml
50 gm retinoid solvent/kg diet.
High dose is 50 mg/kg; low dose 15 mg/kg. Rats on high dose of
sacrificed after 18 weeks.
Placebo: 50 gm retinoid solvent/kg diet.

[2] = system: MNU-induced mammary cancer; experiment: as above; type: in vivo, Female Sprague-Dawley rats
[3] = Accumulation in the liver; type: in vivo; conditions: unlike the natural retinyl esters
tracheal epithelium = experiment: Reversal of keratinized squamous metaplastic lesions of vitamin A deficiency in tracheal organ culture; type: cell-based; conditions: for % of Cultures with Keratin and Keratohyaline Granules / % of Cultures with Respective Amounts of Squamous Metaplasia: None / % of Cultures with Respective Amounts of Squamous Metaplasia: Marked / % of Cultures with Respective Amounts of Squamous Metaplasia: Mild / % of Cultures with Respective Amounts of Squamous Metaplasia: Minimal / % of Cultures with Respective Amounts of Squamous Metaplasia: Severe: collected day 10; for % of Cultures with Respective Amounts of Squamous Metaplasia: Marked: marked = 10-40% squamous; for % of Cultures with Respective Amounts of Squamous Metaplasia: Mild: mild = 2-10% squamous; for % of Cultures with Respective Amounts of Squamous Metaplasia: Minimal: minimal = less than 2% squamous; for % of Cultures with Respective Amounts of Squamous Metaplasia: Severe: severe = more than 40% squamous
Excerpt: N-(4-hydroxyphenyl)-all-trans-retinamide was compared with retinoic acid in an in vitro screening model for identifying retinoids having activity in preventing carcinogenesis in epithelial tissue. The experimental method, which is described in Experimental Lung Cancer:Intern'l Symp, 575-82, 1974, involves reversal of keratinization in tracheal organ culture.
In brief summary, in the absence of retinoic acid or a synthetic retinoid having similar activity, the test organ culture of tracheal epithelium undergoes abnormal differentiation. Addition of small concentrations of retinoic acid (as low as 10^-9 M) will cause reversion to normal tracheal epithelium. Test compounds are compared in activity to retinoic acid or another active standard both as regards squamous metaplasia and keratin production, both of which are measures of abnormal development of the epithelial culture.
In carrying out the tests reported in Table I, all tracheas were cultured for the first 3 days in medium without retinoid. At this time, some tracheas were collected, while the rest were cultured for a further week in medium containing either no retinoid, or retinoid added at the concentrations shown. These tracheas were collected on the 10th day of culture. Cultures were graded as to the percentage of their total epithelium showing squamous metaplasia on eight cross sections from the middle of each trachea. If more than 40% of the total epithelial length was squamous, it was graded as having severe squamous metaplasia; between 10-40% was graded as marked; between 2-10% was graded as mild; and less than 2% was graded as minimal.

[4] = compared with sunscreening amounts of retinoic acid; U.S. Pat. No. 4,108,880; cited from earlier work
Systemic toxicity = conditions: in vivo
[5] = Toxicity compared to retinyl acetate; conditions: in vivo
epithelial cancer = experiment: Effectiveness in preventing epithelial cancer in mammals; type: in vivo; conditions: at reasonable dose levels
LD50 in Swiss mice = conditions: mouse, in vivo
Procedure: The drug is administered at regular intervals, conveniently at meal times or once daily.

[6] = Target specificity in concentrating at the breast; conditions: in vivo
breast cancer = experiment: Prevention of breast cancer in rats, oral dosing; type: in vivo; conditions: oral doses of 32 and 64 mg/kg/day
[7] = U.S. Pat. No. 4,108,880; cited from earlier work
[8] = 18 weeks, MNU high dose (50 mg/kg), 391 mg/kg diet
[9] = 21 weeks, MNU low dose (15 mg/kg), 391 mg/kg diet
[10] = Table II, 73 days, MNU high dose (50 mg/kg), 391 mg/kg diet
[11] = Table II, 73 days, MNU high dose (50 mg/kg), 782 mg/kg diet
[12] = Table II, 73 days, MNU low dose (15 mg/kg), 391 mg/kg diet
[13] = Table II, 73 days, MNU low dose (15 mg/kg), 782 mg/kg diet
[14] = Table II, 73 days, saline, 391 mg/kg diet
[15] = Table II, 73 days, saline, 782 mg/kg diet
[16] = Table III, 18 weeks, MNU high dose (50 mg/kg), 782 mg/kg diet
[17] = Table III, 21 weeks, MNU low dose (15 mg/kg), 782 mg/kg diet
[18] = Table III, saline, 391 mg/kg diet
[19] = Table III, saline, 782 mg/kg diet

For `CC1=C(/C=C/C(C)=C/C=C/C(C)=C/C(=O)Nc2ccc(O)cc2)C(C)(C)CCC1` [4-Hydroxyphenyl Retinamide, N-(4-hydroxyphenyl)-all-trans-retinamide], the “Mammary Tumor Incidence” value [1, 8] was 13/16, the “Mammary Tumor Incidence (%)” value [1, 8] was 81% and the “Mammary Tumor Incidence (%)” value ([1]; 18 weeks, MNU high dose (50 mg/kg), 782 mg/kg diet) was 64%. For the same compound, the “Mammary Tumor Incidence (%)” value [1, 9] was 12%, the “Total Number of Tumors” value [1, 9] was 5 and the “Mammary Tumor Incidence” value ([1]; saline, 391 mg/kg diet) was 0/10. The “Total Number of Tumors” value ([1]; saline, 782 mg/kg diet) was 0, the “efficacy relative to retinyl acetate” value ([2]; MNU-induced mammary carcinogenesis) was “substantially as efficacious as retinyl acetate” and the “Mammary Tumor Incidence” value [2, 10] was 5/16. The “Mammary Tumor Incidence (%)” value [2, 10] was 31%, the “Mammary Tumor Incidence” value [2, 11] was 0/17 and the “Mammary Tumor Incidence (%)” value [2, 11] was 0%. The “Mammary Tumor Incidence” value [2, 12] was 0/40, the “Mammary Tumor Incidence (%)” value [2, 12] was 0% and the “Mammary Tumor Incidence” value [2, 13] was 0/39. The “Mammary Tumor Incidence (%)” value [2, 13] was 0%, the “Mammary Tumor Incidence” value [2, 14] was 0/10 and the “Mammary Tumor Incidence (%)” value [2, 14] was 0%. For the same compound, the “Mammary Tumor Incidence” value [2, 15] was 0/10, the “Mammary Tumor Incidence (%)” value [2, 15] was 0% and the “Total Number of Tumors” value ([2]; Table III, 18 weeks, MNU high dose (50 mg/kg), 391 mg/kg diet) was 48. The “Mammary Tumor Incidence” value [2, 16] was 11/17, the “Total Number of Tumors” value [2, 16] was 37 and the “Mammary Tumor Incidence” value ([2]; Table III, 21 weeks, MNU low dose (15 mg/kg), 391 mg/kg diet) was 5/40. For the same compound, the “Mammary Tumor Incidence” value [2, 17] was 3/39, the “Mammary Tumor Incidence (%)” value [2, 17] was 8% and the “Total Number of Tumors” value [2, 17] was 4. The “Mammary Tumor Incidence (%)” value [2, 18] was 0%, the “Total Number of Tumors” value [2, 18] was 0 and the “Mammary Tumor Incidence” value [2, 19] was 0/10. The “Mammary Tumor Incidence (%)” value [2, 19] was 0%, the “accumulation in the liver” value [3] was “does not accumulate in the liver in appreciable amounts” and the “efficacy relative to retinoic acid” value (tracheal epithelium; 10^-8 M) was “at least as efficacious as retinoic acid”. The “% of Cultures with Keratin and Keratohyaline Granules” value (tracheal epithelium; 10^-8 M) was 0%, the “% of Cultures with Respective Amounts of Squamous Metaplasia: None” value (“% of Cultures with Respective Amounts … None” below) (tracheal epithelium; 10^-8 M) was 20% and the “% of Cultures with Respective Amounts of Squamous Metaplasia: Marked” value (“% of Cultures with Respective Amounts … Marked” below) (tracheal epithelium; 10^-8 M) was 0%. For the same compound, the “% of Cultures with Respective Amounts of Squamous Metaplasia: Mild” value (from here on “% of Cultures with Respective Amounts … Mild”) (tracheal epithelium; 10^-8 M) was 0%, the “% of Cultures with Respective Amounts of Squamous Metaplasia: Minimal” value (“% of Cultures with Respective Amounts … Minimal” for short) (tracheal epithelium; 10^-8 M) was 80% and the “% of Cultures with Respective Amounts of Squamous Metaplasia: Severe” value (“% of Cultures with Respective Amounts … Severe” below) (tracheal epithelium; 10^-8 M) was 0%. For the same compound, the “efficacy relative to retinoic acid” value (tracheal epithelium; 10^-9 M) was “nearly as efficaceous”, the “% of Cultures with Keratin and Keratohyaline Granules” value (tracheal epithelium; 10^-9 M) was 40% and the “% of Cultures with Respective Amounts … None” value (tracheal epithelium; 10^-9 M) was 20%. The “% of Cultures with Respective Amounts … Marked” value (tracheal epithelium; 10^-9 M) was 0%, the “% of Cultures with Respective Amounts … Mild” value (tracheal epithelium; 10^-9 M) was 30% and the “% of Cultures with Respective Amounts … Minimal” value (tracheal epithelium; 10^-9 M) was 20%. The “% of Cultures with Respective Amounts … Severe” value (tracheal epithelium; 10^-9 M) was 30%, the efficacy (tracheal epithelium; 10^-10 M) was “virtually inefficacious” and the “% of Cultures with Keratin and Keratohyaline Granules” value (tracheal epithelium; 10^-10 M) was 100%. The “% of Cultures with Respective Amounts … None” value (tracheal epithelium; 10^-10 M) was 0%, the “% of Cultures with Respective Amounts … Marked” value (tracheal epithelium; 10^-10 M) was 75% and the “% of Cultures with Respective Amounts … Mild” value (tracheal epithelium; 10^-10 M) was 12%. For the same compound, the “% of Cultures with Respective Amounts … Minimal” value (tracheal epithelium; 10^-10 M) was 0%, the “% of Cultures with Respective Amounts … Severe” value (tracheal epithelium; 10^-10 M) was 12% and the “irritating effect on skin” value [4] was “does not have the irritating effect on skin that would be expected from the use of sunscreening amounts of retinoic acid”. For the same compound, the systemic toxicity (Systemic toxicity) was “low systemic toxicity”, the “toxicity relative to retinyl acetate” value [5] was “less toxic” and the “effectiveness in preventing epithelial cancer in mammals” value (epithelial cancer) was “good effectiveness in preventing epithelial cancer in mammals”. The LD50 (LD50 in Swiss mice; ip) was 436 mg/kg, the LD50 (LD50 in Swiss mice; po) was greater than 400 mg/kg and the “target specificity in concentrating at the breast” value [6] was “adequate target specificity in concentrating at the breast”. For the same compound, the “prevention of breast cancer in rats” value (breast cancer) was “very effective in preventing breast cancer in rats” and the ultraviolet absorption [7] was “good ultraviolet absorber”.
